How the values were obtained:
Leishmania donovani [1] = experiment: Animal test: Balb/c mice infected with Leishmania donovani, intravenous treatment once daily for 5 days, liver parasite count; assay type: in vivo, Leishmania donovani in Balb/c mice; conditions: for ED50 (P95 limits): i.v. daily for 5 days, 10080 min
Source text: (§1) Inbred male mice, strain Balb/c (Bantin & Kingman), were infected with Leishmania donovani by intravenous inoculation of 10^7 amastigotes from the spleen of an infected hamster. One week after inoculation, the mice were divided into groups of 9-10 animals and dosed intravenously into the tail vein with sodium stibogluconate, either as free drug or entrapped in liposomes similar to those described in Example 1. The dose was given once daily for 5 days. Empty liposomes were inoculated into one group as controls. Seven days after the first dose of drug, the mice were killed, the livers excised and weighed, and impression smears prepared from a cut surface of the liver. The impression smears were stained with Giemsa, and number of amastigotes counted microscopically per 500 liver cell nuclei, and the total number of parasites calculated by the method of Stauber et al. J. Protozoology, 5, 269, (1958).
(§2) The doses of sodium stibogluconate were calculated in terms of mg antimony/kg for both free and entrapped drug. The liposome dilutions were freshly prepared for each day of drug treatment.
The results of treatment are expressed as the mean of the total numbers of amastigotes in the liver of each mouse.

Leishmania donovani [2] = experiment: Animal test: mice infected with Leishmania donovani, single intravenous injection (Experiment No. 82), liver parasite count; assay type: in vivo, Leishmania donovani in Balb/c mice
Source text: as §1, with “The dose was given once daily for 5 days.” left out
as §2
The results of treatment are expressed as the mean of the total numbers of amastigotes in the liver of each mouse. The following results were obtained:
Further animal tests on mice, as described in Example 2, were carried out using a liposomal formulation corresponding to that described as Preparation No. 8 in Example 2. […]

[3] = expt. 44, 15 mg Sb/kg × 5, i.v.
[4] = expt. 56, 0.5 mg Sb/kg × 5, i.v.
[5] = expt. 56, 1.0 mg Sb/kg × 5, i.v.
[6] = expt. 56, 2.0 mg Sb/kg × 5, i.v.
[7] = expt. 56, 4.0 mg Sb/kg × 5, i.v.

With sodium stibogluconate the “Potency relates to free drug (P95 limits)” value (Leishmania donovani [1]; Expt. 44) was 1, the “ED50 (P95 limits)” value (Leishmania donovani [1]; Expt. 44) was 2.4 (3.2-1.8) mg Sb/kg × 5 and the “Potency relates to free drug (P95 limits)” value (Leishmania donovani [1]; Expt. 56) was 1. The “ED50 (P95 limits)” value (Leishmania donovani [1]; Expt. 56) was 1.14 (1.35-0.95) mg Sb/kg × 5, the “% inhibition” value (Leishmania donovani [1]; expt. 44, 5 mg Sb/kg × 5, i.v.) was 72% and the “Mean no. of parasites/mouse liver ± SE” value (Leishmania donovani [1]; expt. 44, 5 mg Sb/kg × 5, i.v.) was 1.54 ± 0.21 × 10^8. The “% inhibition” value (Leishmania donovani [1]; [3]) was 93%, the “Mean no. of parasites/mouse liver ± SE” value (Leishmania donovani [1]; [3]) was 0.38 ± 0.08 × 10^8 and the “% inhibition” value (Leishmania donovani [1]; [4]) was 23%. The “Mean no. of parasites/mouse liver ± SE” value (Leishmania donovani [1]; [4]) was 3.80 ± 0.37 × 10^8, the “% inhibition” value (Leishmania donovani [1]; [5]) was 26% and the “Mean no. of parasites/mouse liver ± SE” value (Leishmania donovani [1]; [5]) was 3.65 ± 0.29 × 10^8. The “% inhibition” value (Leishmania donovani [1]; [6]) was 69%, the “Mean no. of parasites/mouse liver ± SE” value (Leishmania donovani [1]; [6]) was 1.55 ± 0.36 × 10^8 and the “% inhibition” value (Leishmania donovani [1]; [7]) was 93%. The “Mean no. of parasites/mouse liver ± SE” value (Leishmania donovani [1]; [7]) was 0.35 ± 0.11 × 10^8 and the “ED50 (dosage rate necessary to reduce the parasite count to 50% of the untreated group)” value (Leishmania donovani [2]) was 61.2 mg antimony per kilogram body weight.
